Laboratory results as given in paper PMC12200682 (PLOS One, 2025).

Columns and labels:
HCC1954 = assay: Cell viability assay, HCC1954; format: cell-based; conditions: Homo sapiens, HCC1954, 144 h, read-out: IC50 cytotoxicity
Protocol: (§1) Cells were seeded into 96-well plates at 1500 cells/well for SK-BR-3, JIMT-1, and NCI-N87, 800 cells/well for HCC1954, 600 cells/well for AGS and MKN-45, 2500 cells/well for MDA-MB-468 and Capan-1, and 1000 cells/well for SNU-16. After overnight incubation, a serially diluted solution of compounds or ADCs was added. Cell viability was evaluated after 6 days using CellTiter-Glo reagent (Promega) according to the manufacturer’s instructions. Luminescence was measured by PHERAstar (BMG LABTECH).

[1] = Pharmacokinetics of payload in mice; design: species or system C57BL/6 mice; conditions: C57BL/6, mouse, in vivo, iv, 0.5 mg/kg
Protocol: All animal experiments at Shanghai Hengrui were approved by Shanghai Hengrui’s Institutional Animal Care and Use Committee. Studies were performed in accordance with ARRIVE guidelines. C57BL/6 mice (15–18 g body weight, n = 18) were purchased from Beijing Vital River Laboratory Animal Technology Co., Ltd and were held as described in details of mouse xenograft section. Compounds were administered intravenously at 0.5 mg/kg. Blood samples were collected at various time points after dosing. Mice were monitored daily for health condition and humane endpoint criteria. There were no unexpected animal deaths or humane endpoint criteria reached during the study. All of the animals were euthanized by using inhaled carbon dioxide at the end of study. The compound concentrations were determined by SCIEX Triple Quad 7500 LC-MS/MS System (SCIEX).

JIMT-1 = assay: Cell viability assay, JIMT-1; format: cell-based; conditions: Homo sapiens, JIMT-1, 144 h, read-out: IC50 cytotoxicity
Protocol: as §1

nine cancer cell lines = assay: Cell viability assay, panel of nine cancer cell lines; format: cell-based; conditions: Homo sapiens; independent of HER2 expression levels; read-out: IC50 values across nine cancer cell lines
Protocol: as §1

NCI-N87 = assay: Cell viability assay, NCI-N87; format: cell-based; conditions: Homo sapiens, NCI-N87, 144 h, read-out: IC50 cytotoxicity
Protocol: as §1

human topoisomerase I = molecular target: T1, human topoisomerase I (Homo sapiens, UniProt P11387); assay: Topoisomerase I inhibition assay; format: biochemical; conditions: read-out: Top I inhibition (IC50)
T1 construct: purchased Inspiralis
T1 sequence (P11387 1-765): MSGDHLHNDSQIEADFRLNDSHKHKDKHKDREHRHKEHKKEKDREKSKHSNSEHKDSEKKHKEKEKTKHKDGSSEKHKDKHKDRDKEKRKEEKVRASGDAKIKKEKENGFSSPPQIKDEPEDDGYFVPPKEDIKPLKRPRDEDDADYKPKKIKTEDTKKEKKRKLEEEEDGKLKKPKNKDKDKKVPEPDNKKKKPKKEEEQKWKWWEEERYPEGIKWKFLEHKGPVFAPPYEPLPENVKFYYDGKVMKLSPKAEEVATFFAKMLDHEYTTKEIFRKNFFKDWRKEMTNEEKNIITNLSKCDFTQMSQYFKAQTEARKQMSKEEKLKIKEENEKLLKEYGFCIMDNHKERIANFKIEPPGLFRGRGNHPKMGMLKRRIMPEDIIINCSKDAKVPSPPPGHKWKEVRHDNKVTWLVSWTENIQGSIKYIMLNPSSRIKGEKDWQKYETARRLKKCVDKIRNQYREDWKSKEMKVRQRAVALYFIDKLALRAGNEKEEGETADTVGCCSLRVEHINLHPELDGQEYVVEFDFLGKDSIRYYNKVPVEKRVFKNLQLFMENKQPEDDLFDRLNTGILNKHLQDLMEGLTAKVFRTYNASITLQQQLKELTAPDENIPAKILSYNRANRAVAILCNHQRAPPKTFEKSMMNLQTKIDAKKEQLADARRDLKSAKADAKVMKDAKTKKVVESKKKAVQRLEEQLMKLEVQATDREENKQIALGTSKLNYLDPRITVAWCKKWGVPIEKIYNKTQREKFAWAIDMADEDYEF
Protocol: Topoisomerase I inhibition assay was outsourced to Wuxi Apptech Co. Ltd. Topoisomerase I activity was measured using human topoisomerase I microplate assay kit (Inspiralis), according to the manufacturer’s instructions.

[2] = Lipophilicity assay (chromatographic LogD); format: physicochemical; conditions: pH 7.4
Protocol: Distribution coefficient (LogD, pH 7.4) was obtained by a high-throughput alternative method. Each compound was dissolved in DMSO at 10 mM. After centrifugation, the solution was measured by reversed-phase HPLC on a C18 column (50 × 4.6 mm, […] Gemini C18, Phenomenex) at pH 7.4, using fast gradient acetonitrile-aqueous buffer mobile phases. The lipophilicity was estimated from a calibration curve using six reference compounds by plotting their respectively measured retention time versus LogD in literature. The chromatographic LogD values were derived directly from the gradient retention time by using this calibration curve.

Capan-1 = assay: Cell viability assay, Capan-1; format: cell-based; conditions: Homo sapiens, CAPAN-1, 144 h, read-out: IC50 cytotoxicity
Protocol: as §1

[3] = Parallel artificial membrane permeability (PAMPA) assay; format: in vitro ADME
Protocol: PAMPA assay was outsourced to Wuxi Apptech Co. Ltd. Briefly, donor plate, acceptor plate and receiver plate formed a sandwich and 200 µL of 5.0 µM donor solutions were added. The concentrations of compounds in both plates were measured by a LC-MS/MS system after 30 minutes. The permeability coefficient (Peff, nm/s) values at pH 5 and 7.4 were calculated.

SK-BR-3 = assay: Cell viability assay, SK-BR-3; format: cell-based; conditions: Homo sapiens, SK-BR-3, 144 h, read-out: IC50 cytotoxicity
Protocol: as §1

AGS = assay: Cell viability assay, AGS; format: cell-based; conditions: Homo sapiens, 144 h, read-out: IC50 cytotoxicity
Protocol: as §1

[4] = Toxicokinetics in cynomolgus monkeys; format: in vivo; conditions: for half-life: both sexes, cynomolgus monkey, in vivo, iv, 40 mg/kg
Protocol: GLP toxicology and toxicokinetics studies were outsourced to Shanghai InnoStar Bio-tech Co., Ltd. Studies were approved by InnoStar’s Institutional Animal Care and Use Committee and carried out in compliance with ARRIVE guidelines. Cynomolgus monkeys were housed in stainless steel cages at the study institution. The temperature and relative humidity of the room were recorded twice a day with ranged from 18 to 26°C and 40–70%, respectively. Ventilation was constantly operated with ≥ 8 times of air changes per hour. […] Monkey maintenance feed was purchased from qualified supplier with microorganisms, heavy metals and pesticide residues tested. During the study, all animals had ad libitum access to feed and clean deionized water except during specific fasting. […] All animals were acclimated to temperature and relative humidity-controlled environment for few days before randomization. Detailed clinical observation was performed on all cynomolgus monkeys once a day during the acclimation period. All of the animal care staff were trained to maximal reduce the pain of animals. Special training such as animal handling, proper injection for treatment/anesthesia, and painless death were taught to the staff.
Clinical signs, body weight, food consumption, and clinical pathology were monitored twice a day. […] Humane endpoint criteria were observed twice a day during study to examine health and behavior. Animals were sacrificed in less than a day once reached endpoint criteria. There were no unexpected animal deaths during the studies with 16-weeks duration. All of the animals were euthanized by intravenous injection of combination of zoletil and xylazine at the end of study for targeted organ and tissue examinations to evaluate toxicity or when the following humane endpoints were reached: severe injury, severe respiratory depression, severe weight loss, persistent anorexia, significant pain or stress, progressive pain leading to weakness, and persistent or continuous twitching. Final disposal of each animal was recorded on the study records.

MDA-MB-468 = assay: Cell viability assay, MDA-MB-468; format: cell-based; conditions: Homo sapiens, MDA-MB-468, 144 h, read-out: IC50 cytotoxicity
Protocol: as §1

MKN45 = assay: Cell viability assay, MKN45; format: cell-based; conditions: Homo sapiens, MKN-45, 144 h, read-out: IC50 cytotoxicity
Protocol: as §1

Work on `CC[C@@]1(O)C(=O)OCc2c1cc1n(c2=O)Cc2c-1nc1cc(F)c(C)c3c1c2[C@@H](NC(=O)[C@H](O)C1CC1)CC3` [SHR169265] yielded an IC50 (HCC1954) of 0.55 ± 0.19 nM, an AUC(0-t) [1] of 113 ng·h/mL and a Cmax [1] of 250 ng/mL. For the same molecule, the Vd [1] was 1.81 L/kg, the clearance [1] was 72.6 mL/min/kg and the half-life ([1]; mice, i.v. injection) was 0.37 h. For the same molecule, the IC50 (JIMT-1) was 2.32 ± 0.45 nM, the IC50 (nine cancer cell lines) was 0.3 to 2.32 nM and the IC50 (NCI-N87) was 1 ± 0.07 nM. It also gave an IC50 (human topoisomerase I) of 1340 nM, a chromatographic logD [2] of 1.89 and an IC50 (Capan-1) of 0.38 ± 0.07 nM. The Papp at 30 min, 5 µM ([3]; pH 5) was 13.8 ×10⁻⁶ cm/s, the Papp at 30 min, 5 µM ([3]; pH 7.4) was 7.16 ×10⁻⁶ cm/s and the IC50 (SK-BR-3) was 0.58 ± 0.1 nM. For the same molecule, the IC50 (AGS) was 0.36 ± 0.11 nM, the RacAUCINF ([4]; analyte after SHR-A1811 40 mg/kg i.v. every 3 weeks, Multiple vs single) was 1.07 and the half-life ([4]; analyte after SHR-A1811 40 mg/kg i.v. every 3 weeks, Multiple) was 101 h. It also gave a half-life ([4]; analyte after SHR-A1811 40 mg/kg i.v., Single) of 107 h, an IC50 (MDA-MB-468) of 0.56 ± 0.09 nM and an IC50 (MKN45) of 0.3 ± 0.07 nM.
